Assay results: US20130237478A1, “COMPOSITIONS AND METHODS FOR TREATMENT OF PERIPHERAL VASCULAR DISEASE” (TARIX PHARMACEUTICALS LTD., priority 2012, published 2013)
Entries after “also recorded” stand apart in the source; their conditions may differ. Positions of bridges follow the written chain, without caps; N, C: chain ends. No end group written: not given here.

What was measured:
[1] = system: Transient middle cerebral artery occlusion (tMCAO); assay: Body swing test after tMCAO stroke; assay type: in vivo, rats; conditions: for body swing performance vs vehicle: by Day 28
Description: For the purposes of this example, Transient middle cerebral artery occlusion (tMCAO) procedure Day is defined as “Day 1” in this study. On the day of surgery anesthesia were induced with 4% isoflurane in a mixture of 70% N2O and 30% O2 and maintained with 1.5-2% isoflurane.
The tMCAO procedures were performed according to the method described R. Schmid-Elsaesser et al. Briefly, the right CCA (Common Carotid Artery) was exposed through a midline neck incision and carefully dissected free from surrounding nerves and fascia—from its bifurcation to the base of the skull. The occipital artery branches of the ECA (External Carotid Artery) were then isolated, and these branches were dissected and coagulated. The ECA was dissected further distally and coagulated along with the terminal lingual and maxillary artery branches, which was then divided. The ICA (Internal Carotid Artery) was isolated and carefully separated from the adjacent vagus nerve, and the pterygopalatine artery was ligated close to its origin with a 5-0 nylon suture (SMI, Belgium). Next, a 4-0 silk suture was tied loosely around the mobilized ECA stump, and a 4 cm length of 4-0 monofilament nylon suture (the tip of the suture was blunted by using a flame, and the suture was coated with polylysine, prior to insertion) was inserted through the proximal ECA into the ICA and thence into the circle of Willis, effectively occluding the MCA. The surgical wound was closed and the animals were returned to their cages to recover from anesthesia. One hour and a half after occlusion rats were re-anesthetized, the monofilament was withdrawn to allow reperfusion, the surgical wound was closed and rats were returned to their cages.
Animals were subjected to a modified Modified Neurological Rating Scale (mNRS) at 24 hours post reperfusion. Only animals with an overall score of ≧10 were included in this study. Animals were allocated into the test groups, according to the mNRS results on day 2, in order to have similar distribution of rats performance between groups. Starting on day 2, 24 hours post-surgery, animals in groups 4, 5 and 7 were implanted subcutaneously with an osmotic Alzet pump and treated with either 500 μg/kg TXA127, 500 μg/kg PanCyte, or 50 μg/kg Linear PanCyte. Animals in groups 2, 3 and 6 received 500 μg/kg or 1,000 μg/kg TXA127 or 500 μg/kg PanCyte, administered subcutaneously via daily injection. Animals in group 1 were treated with a daily subcutaneous injection of a PBS (vehicle).
Each rat was held approximately one inch from the base of its tail. It was then elevated to an inch above a surface of a table. The rat was held in the vertical axis, defined as no more than 10° to either the left or the right side. A swing was recorded whenever the rat moves its head out of the vertical axis to either side. Before attempting another swing, the rat must return to the vertical position for the next swing to be counted. Twenty (20) total swings were counted. A normal rat typically has an equal number of swings to either side. Following focal ischemia, the rat tends to swing to the contralateral side (left side in this case). Body swing scores are expressed as a percentage of […] over total swings.

hind limb ischemia = assay: Blood flow by non contact laser Doppler in mouse hind limb ischemia model; assay type: in vivo, Balb/c mice
Source text: A stable hind limb ischemia model has been described previously and is generally characterized by uniform ischemic damage useful for examining the effect of various therapies (Goto, et al. Tokai J Exp Clin Med, 31(3):128 2006; Kang Y, et al. PLoS One. 2009; 4(1):e4275)). The hind limb ischemia model in mice used in this example involves two ligations of the proximal end of the femoral artery and its dissection between the two ligatures. The surgery causes obstruction of the blood flow and subsequently leads to severe ischemic damage (Goto, et al.; Kang, et al.). In this experiment, healthy adult female Balb/c mice were used. Hind limb ischemia was induced in mice using protocols previously described. Briefly, Balb/c female mice were maintained on a standard diet with water available ad libitum. Mice were anesthetized and an incision was made in the skin in the inguinal area. The femoral artery was ligated twice with 6-0 silk thread and transected between the ligatures after this the wound was closed with 4-0 silk thread and the mouse was allowed to recover. […]
Blood flow in legs from both sides of the animals was measured with a non contact laser Doppler before surgery and on days: 1, 7, 15, 21, 28, 35, 42 and 49 post operation. Blood flow measurements were expressed as the ratio of the flow in the ischemic limb to that in the normal limb.
The model used in this example is the same as for Example 1. Briefly, the hind limb ischemia model in mice used in this example involves two ligations of the proximal end of the femoral artery and its dissection between the two ligatures. The surgery causes obstruction of the blood flow and subsequently leads to severe ischemic damage (Goto, et al.; Kang, et al.). In this experiment, healthy adult female Balb/c mice were used. Hind limb ischemia was induced in mice using protocols previously described. Briefly, Balb/c female mice were maintained on a standard diet with water available ad libitum. Mice were anesthetized and an incision was made in the skin in the inguinal area. The femoral artery was ligated twice with 6-0 silk thread and transected between the ligatures after this the wound was closed with 4-0 silk thread and the mouse was allowed to recover.
An Angiotensin (1-7) polypeptide composition (PanCyte) and vehicle control (DPBS) were supplied as ready to use solutions and were stored at 4° C. until use. PanCyte was injected subcutaneously (500 μg/kg or 50 μg/kg) daily starting on day 1, 24 hours after inducing ischemia, until the end of the study. Negative control mice were injected subcutaneously with a vehicle.
(§1) The model and procedures used for this example is the same as for those in Examples 1 and 2, unless otherwise specified.
An Angiotensin (1-7) polypeptide composition (PanCyte, cyclized Asp^1-Arg^2-Val^3-Ser^4-Ile^5-His^6-Cys (SEQ ID NO:22)) and vehicle control (DPBS) were supplied as ready to use solutions and were stored at 4° C. until use. In groups 2F-5F, PanCyte was injected subcutaneously (1 μg/kg, 5 μg/kg, 25 μg/kg, 50 μg/kg) daily starting on day 1, 24 hours after inducing ischemia, until the end of the study. In group 6F, an osmotic Alzet pump was implanted subcutaneously and provided for continuous release of PanCyte over the duration of the study. Negative control mice were injected subcutaneously with vehicle (DPBS).

[2] = Body weight of mice in hind limb ischemia studies; assay type: in vivo, Balb/c mice; conditions: throughout the study
Description: Body weight of animals was measured before the surgery and once weekly thereafter.
as §1

Substance: cyclized Asp^1-Arg^2-Val^3-Ser^4-Ile^5-His^6-Cys (SEQ ID NO:22) (DRVSIHC; bridge 4-7; not fully specified; printed as Asp1-Arg2-Val3-Ser4-Ile5-His6-Cys7) [PanCyte, cyclic angiotensin peptide]
- body swing performance vs vehicle ([1]; 500 μg/kg SC daily): significant improvement in performance
- body swing performance ([1]; 500 μg/kg by Alzet pump, by Day 21): showed improvement
- body swing performance vs vehicle ([1]; 500 μg/kg by Alzet pump): significant improvement in performance
- blood flow restored (hind limb ischemia; Example 2, 50 μg/kg SC): 85 % of its normal values
- improvement in blood flow vs vehicle (hind limb ischemia; Example 2, 50 μg/kg SC daily (3F), from day 21 up to day 49, p<0.05-0.001): statistically significant improvement in blood flow
- blood flow restored (hind limb ischemia; Example 2, 500 μg/kg SC): 85 % of its normal values
- improvement in blood flow vs vehicle (hind limb ischemia; Example 2, 500 μg/kg SC daily (2F), from day 21 up to day 49, p<0.05-0.001): statistically significant improvement in blood flow
- improvement in blood flow vs vehicle (hind limb ischemia; Example 3, 1 μg/kg SC daily (2F), days 42 and 49): blood flow improvement reached statistically significance
- improvement in blood flow vs vehicle (hind limb ischemia; Example 3, 5 μg/kg SC daily (3F), days 42 and 49): blood flow improvement reached statistically significance
- improvement in blood flow vs vehicle (hind limb ischemia; Example 3, 25 μg/kg SC daily (4F), days 42 and 49): blood flow improvement reached statistically significance
- improvement in blood flow vs vehicle (hind limb ischemia; Example 3, 50 μg/kg SC daily injections (5F), day 35 up to day 49): significant improvement in blood flow
- improvement in blood flow vs vehicle (hind limb ischemia; Example 3, 50 μg/kg continuous SC by Alzet pump (6F), day 14 up to day 49): Statistically significant improvement in blood flow; also recorded: particularly good and early blood perfusion restoration
- blood flow restored (hind limb ischemia; Example 3, SC 1-50 μg/kg, dose dependent manner): up to 84 % of its normal values
- body weight vs vehicle ([2]; Example 2, 500 or 50 μg/kg SC daily): no statistically significant differences
- body weight vs vehicle ([2]; Example 3, 1-50 μg/kg SC): no statistically significant differences
